The MIC is the lowest concentration that inhibits growth of the organism.

The source of these data is patent publication US7169890B2, “Process for the production of ramoplanin-like amide derivatives” (Vicuron Pharmaceuticals Inc., priority 2002, dated 2007).

Where only a bound is given, the exact number is not on record here.

In data set [1] the test system is 569 Entero. faecium clin. isolate Van-A. The experiment in a line: MIC, broth microdilution NCCLS (isolated compounds or reaction solutions). The data set is classed as cell-based, Enterococcus faecium. The note with it: for MIC: 569 Entero. faecium clin. isolate Van-A, isolated compounds. As to the method:
(§1) The antimicrobial activity in vitro of the compounds obtained according to the process of this invention was evaluated against a panel of clinical isolates of methicillin-sensitive, methicillin-resistant and vancomycin-intermedie Staphylococcus aureus, Van-S and Van-A Enterococcus faecium and faecalis, Streptococcus pyogenes, Escherichiae coli and Candida albicans.
(§2) MICs were performed using the broth microdilution methodology following the NCCLS procedure (NCCLS Document M7-A4 Vol.17 No.2 January 1997) in presence of 0.02% albumine bovine serum with inocula of approximately 5×10^5 cfu/mL. The media employed included cation-adjusted Mueller-Hinton (MH) broth (Difco Laboratories, Detroit, Mich., USA) supplemented or not with 30% (v/v) bovine serum. Tests were read after 24 h incubation at 37° C.
(§3) A further set of experiments for measuring the antimicrobial activity in vitro of a series of compounds of formula (Ia) in comparison with the known compound 1 was carried out directly on the solutions deriving from the reaction of the starting acid of formula (IV) with the deacyl ramoplanin of formula (III) according to the method A described in the Examples.
(§4) The reaction solutions (resulting from the addition of 1M hydrochloric acid as described in Method A) were diluted at 6000 mcg/ml by adding 0.1% peptone Difco Laboratories, (Detroit, Mich., USA) plus 0.9% NaCl (PBS). The resulting solutions were diluted with water at the desired concentration to perform the test that was then carried out in the same way described for the isolated compounds reported in Table 2.
For orientation: Dilution methods test growth across graded concentrations, often in twofold steps.

Data set [2] relates to 568 Entero. faecium (isogenic of L569). The data set is described as above. Type of data set: cell-based, Enterococcus faecium. The protocol:
as §1, §2, §3, §4

In data set [3] the test system is 560 Entero. faecalis VanA. The data set is described as above. The note with it: for MIC: 560 Entero. faecalis VanA, isolated compounds. The data set is classed as cell-based, Enterococcus faecalis. As to the method: as §1, §2, §3, §4
Data set [4] deals with 145 Candida albicans SKF2270. The description is as above. The data set is classed as cell-based. The note with it: for MIC: 145 Candida albicans SKF2270, isolated compounds. The protocol: as §1, §2, §3, §4
For a further data set, the system named is 49 Strep. pyogenes C203. The description is as above. The data set is classed as cell-based, Streptococcus pyogenes. The note with it: for MIC: 49 Strep. pyogenes C203, isolated compounds. As to the method:
as §1, §2, §3, §4

A further data set has as its system 47 E coli SKF12140. The description is as above. Type of data set: cell-based, Escherichiae coli. Particulars: for MIC: 47 E coli SKF12140, isolated compounds. As to the method:
as §1, §2, §3, §4

Data set [5] concerns 3798 Staph. aureus clin. isolate VISA. Described as above. The data set is classed as cell-based, Staphylococcus aureus. The note with it: for MIC: 3798 Staph. aureus clin. isolate VISA, isolated compounds. The protocol:
as §1, §2, §3, §4

Data set [6] concerns 613 Staph. aureus clin. isolate Met-R. The description is as above. The note with it: for MIC: 613 Staph. aureus clin. isolate Met-R, isolated compounds. Type of data set: cell-based, Staphylococcus aureus. The protocol: as §1, §2, §3, §4
In data set [7] the test system is 3797 Staph. aureus clin. isolate VISA Met-R. Described as above. The data set is classed as cell-based, Staphylococcus aureus. The note with it: for MIC: 3797 Staph. aureus clin. isolate VISA Met-R, isolated compounds. As to the method: as §1, §2, §3, §4
A further data set has as its system 819 Staph. aureus Smith. The data set is described as above. The note with it: for MIC: 819 Staph. aureus Smith, isolated compounds. The data set is classed as cell-based, Staphylococcus aureus. As to the method:
as §1, §2, §3, §4

Data set [8] deals with Staphylococcus aureus Smith SA 819. The experiment in a line: Murine septicaemia, Staphylococcus aureus Smith SA 819 systemic infection. Type of data set: in vivo. The note with it: mice, i.p. infection, s.c. treatment, survival to day 7. The protocol:
As an example, therapeutical effectiveness of some representative compounds of formula (Ia) in murine septicaemia caused by intraperitoneally administered Staphylococcus aureus Smith SA 819 was evaluated in comparison with ramoplanin. Vancomycin was chosen as reference drug for the evaluation of in vivo antiinfective activity.
Mice were infected intraperitoneally with Staphylococcus aureus Smith SA 819. Untreated animals died within 24 hours after infection. Groups of eight mice each were treated s.c. with different dose levels of ramoplanin or of each test compound, starting 10–20 min after challenge. Reference drugs was s.c. injected vancomycin.

Data set [9] deals with methicillin-resistant Staphylococcus aureus SA 613. The experiment in a line: Murine infection, methicillin-resistant Staphylococcus aureus SA 613. The data set is classed as in vivo. The note with it: mice, i.p. infection, s.c. treatment, survival to day 7. As to the method:
Mice were infected intraperitoneally with ca 10^7 CFU/mouse of Staphylococcus aureus SA 613. Untreated animals died within 24 hours after infection. Groups of eight mice each were treated iv or s.c. with different dose levels of ramoplanin or each test compound, starting 10–20 minutes after challenge. Ramoplanin and vancomycin were used as reference drugs.

Data set [10] concerns blood cells. The data set can be described thus: Haemolytic potential on blood cells (isolated compounds). Type of data set: cell-based, rats. The protocol:
The ramoplanin-like amide derivatives were dissolved at 40.000 mcg/ml in dimethyl sulfoxide (DMSO) and then diluted 1:5 in 0.1% peptone Difco Laboratories, (Detroit, Mich., USA) plus 0.9% NaCl (PBS).
(§5) Whole blood sample was obtained from the dorsal aorta of rats and diluted 1:100 in PBS before the test.
Group 2—PBS as physiologic haemolysis control
Group 3—saponin (Sigma), solution at 3% in distilled water, as 100% haemolysis control.
(§6) The test groups were diluted 1:5 in blood cells and incubated in water bath at 37° C. for 45 minutes.
(§7) After the incubation time the samples were centrifuged at 2500–3000 g for 10 minutes, and 0.1 ml of each supernatant was diluted in 900 mcl of Drabkin's reagent (Sigma).
(§8) The optical density (OD) of the samples was measured at 540 nm versus a blank preparation of Drabkin's reagent plus 0.1 ml of PBS.
The test was performed in triplicate.
(§9) The percentage of haemolysis was calculate using the formula Δx/Δt×100=% of haemolysis
Δx=mean value of OD540 for each concentration tested (GROUP 1–2)
Δt=mean value of OD540 for 100% haemolysis control (GROUP 3).
(§10) The haemolysis was considered significant when exceeding at least 3 times the haemolytic value of blank control (GROUP 2).

Data set [11] relates to 559 Entero. faecalis (isogenic of L 560). The experiment in a line: MIC, broth microdilution NCCLS (isolated compounds or reaction solutions). Type of data set: cell-based, Enterococcus faecalis. As to the method: as §1, §2, §3, §4
Data set [12] concerns blood cells. The data set can be described thus: Haemolytic effect (reaction solutions). The data set is classed as cell-based, rats. As to the method: as §5, §6, §7, §8, §9, §10
A further set of experiments for measuring the haemolytic effect of a series of compounds of formula (Ia) in comparison with the known compound 1 was carried out directly on the solutions deriving from the reaction of the starting acid of formula (IV) with the deacyl ramoplanin of formula (III) according to the method A described in the Examples.
The reaction solutions (resulting from the addition of 1M hydrochloric acid as described in Method A) were diluted at 1200 mcg/ml by adding 0.1% peptone Difco Laboratories, (Detroit, Mich., USA) plus 0.9% NaCl (PBS).

The mark [13] stands for this setting: reaction solutions, +30% bovine serum.

As to “tetrahydroderivative of ramoplanin factor A1 [Compound 5]”, the MIC in data set [1] (+30% bovine serum) was 4 µg/mL; in data set [1], 0.125 µg/mL; in data set [2] (568 Entero. faecium (isogenic of L569), isolated compounds), 0.25 µg/mL; in data set [3] (+30% bovine serum), 2 µg/mL; in data set [3], 0.06 µg/mL; in data set [4], more than 32 µg/mL. Further, the MIC was less than 0.03 µg/mL against 49 Strep. pyogenes C203; more than 32 µg/mL with 47 E coli SKF12140; 2 µg/mL in data set [5]; 0.5 µg/mL in [6]; 4 µg/mL in data set [7]; 4 µg/mL against 819 Staph. aureus Smith (+30% bovine serum). Further, the MIC against 819 Staph. aureus Smith (MH broth) came out at 0.25 µg/mL.
Consider `CN[C@H](CC(C)C)C(=O)N[C@H]1C(=O)N[C@@H](CC(N)=O)C(=O)N[C@H]2C(=O)N[C@H]3C(=O)N[C@H](C(=O)N[C@H](C(=O)O)c4cc(O)cc(O)c4-c4cc3ccc4O)[C@H](O)c3ccc(c(Cl)c3)Oc3cc2cc(c3O[C@@H]2O[C@H](CO)[C@@H](O)[C@H](O)[C@H]2O[C@H]2C[C@](C)(N)[C@H](O)[C@H](C)O2)Oc2ccc(cc2Cl)[C@H]1O` [Vancomycin], for which the ED50 amounted to 0.64 mg/kg/dose in [8] and 8 mg/kg/dose in data set [9].
With ramoplanin factor A1 [Compound 35], the MIC was 1 µg/mL in [1] (+30% bovine serum); less than 0.125 µg/mL in data set [1]; 0.5 µg/mL in [3] (+30% bovine serum); less than 0.125 µg/mL in data set [3]; more than 128 µg/mL in [4]; less than 0.125 µg/mL in the data set on 49 Strep. pyogenes C203. The MIC in the data set with 47 E coli SKF12140 is more than 128 µg/mL; in data set [5] (+30% bovine serum) it was 2 µg/mL; in [5], 0.5 µg/mL; in data set [6], less than 0.125 µg/mL; in data set [7], 1 µg/mL; with 819 Staph. aureus Smith (+30% bovine serum) it was 0.5 µg/mL. Further, in the data set with 819 Staph. aureus Smith (MH broth), the MIC is less than 0.125 µg/mL. Besides, the “% lyis at 100 mcg/ml” value in the data set with blood cells [10] stood at 58.99%. The “% lysis at 200 mcg/ml” value with blood cells [10] is recorded as 80.44%. For the same compound, the “% lysis at 400 mcg/ml” value in the data set with blood cells [10] came to 92.82%.
Take ramoplanin factor A2 [Compound 1]: the MIC in data set [1] (+30% bovine serum) was 2 µg/mL; in data set [1] it was 0.125 µg/mL; in data set [3] (+30% bovine serum), 2 µg/mL; in [3] it was 0.06 µg/mL; in data set [11] (559 Entero. faecalis (isogenic of L 560), isolated compounds), 0.06 µg/mL; in data set [4], more than 32 µg/mL. Also, the MIC with 49 Strep. pyogenes C203 is less than 0.03 µg/mL; in the data set on 47 E coli SKF12140, more than 32 µg/mL; in [5] (+30% bovine serum) it was 16 µg/mL; in data set [5], 1 µg/mL; in data set [6] it was 0.25 µg/mL; in [7], 2 µg/mL. Besides, the MIC came to 4 µg/mL with 819 Staph. aureus Smith (+30% bovine serum) and 0.125 µg/mL against 819 Staph. aureus Smith (MH broth). Also, in data set [1] (setting [13]), the “MIC 569 Entero. faecium clin. isolate Van-A +30% bovine serum” value was found to be 2 µg/mL. Further, in [1] (reaction solutions, no serum), the “MIC 569 Entero. faecium clin. isolate Van-A” value is “≦0.125 mcg/ml”. For the same compound, in data set [2] (reaction solutions, no serum), the “MIC 568 Entero. faecium (isogenic of L569)” value is listed as “≦0.125 mcg/ml”. Also, the “% lyis at 100 mcg/ml” value in the data set with blood cells [10] is 86.04%. Besides, in the data set with blood cells [10], the “% lysis at 200 mcg/ml” value worked out at 100%. Further, in the data set on blood cells [10], the “% lysis at 400 mcg/ml” value is on record as 100%. Also, the “MIC 560 Entero. faecalis VanA +30% bovine serum” value in [3] (setting [13]) was 2 µg/mL. For the same compound, the “MIC 560 Entero. faecalis VanA” value in data set [3] (reaction solutions, no serum) was “≦0.125 mcg/ml”. Further, the “MIC 559 Entero. faecalis (isogenic of L 560)” value in data set [11] (reaction solutions, no serum) is reported as “≦0.125 mcg/ml”. For the same compound, the “% lysis at 300 mcg/ml” value in the data set on blood cells [12] (300 mcg/ml) is listed as 74.39%. The “% lysis at 600 mcg/m” value in the data set on blood cells [12] (600 mcg/m) worked out at 88.87%. Besides, the “MIC 145 Candida albicans SKF2270” value in data set [4] (reaction solutions) was more than 128 µg/mL. The “MIC 49 Strep. pyogenes C203” value in the data set with 49 Strep. pyogenes C203 (reaction solutions, no serum) is “≦0.125 mcg/ml”. The “MIC 47 E coli SKF12140” value against 47 E coli SKF12140 (reaction solutions) is more than 128 µg/mL. In [5] (setting [13]), the “MIC 3798 Staph. aureus clin. isolate VISA +30% bovine serum” value stood at 8 µg/mL. Further, in data set [5] (reaction solutions, no serum), the “MIC 3798 Staph. aureus clin. isolate VISA” value turned out to be 1 µg/mL. The “MIC 613 Staph. aureus clin. isolate Met-R” value in data set [6] (reaction solutions, no serum) came to 0.25 µg/mL. Also, the “MIC 3797 Staph. aureus clin. isolate VISA Met-R” value in [7] (reaction solutions, no serum) is 2 µg/mL. Further, the “MIC 819 Staph. aureus Smith +30% bovine serum” value against 819 Staph. aureus Smith (setting [13]) is 2 µg/mL. For the same compound, the “MIC 819 Staph. aureus Smith” value in the data set on 819 Staph. aureus Smith (reaction solutions, no serum) was “≦0.125 mcg/ml”.
